Data from patent US5480887A, “Protease inhibitors” (Eli Lilly and Company, priority 1994, dated 1996).
Like-named read-outs stand apart in the source and are kept apart here.

Columns and labels:
[1] = target: T1, HIV-1 Protease (Human immunodeficiency virus type 1 group M subtype B, UniProt P04585); test: biochemical; settings: read-out: Fluorescence Assay IC50 (converted)
T1 construct: HIV-1 Protease
Protocol: These compounds may be assayed using two assays: (1) an enzyme inhibition assay, and (2) an antiviral cell culture assay.
This assay is described in detail in published European Patent Application (EPA) 0 526 009, herein incorporated by reference. Using this assay, a number of the compounds, prepared above, were assayed for HIV protease inhibitory activity.
The assay is unable to test compounds at less than a concentration of 0.16 ng/mL.

[2] = system: HIV; test: microbe, parasite or virus in culture; type: cell-based; settings: XTT, 450 nm, * (n) = average of n assays, read-out: Antiviral Activity IC90
Protocol: In addition, the compounds described in the present application may be tested using an antiviral cell culture assay as described in Weislow, O.S., J. of National Cancer Institute, 81(8), pages 577-586 (Apr. 19, 1989) herein incorporated by reference.
This assay compares the viability of HIV-infected cells in a cell culture medium relative to the viability of such cells in the presence of a test compound. The concentration of test compound necessary to inhibit 90% of the virus is then measured using the viability of the cells as an indicator of viral inhibition. This assay is carried out using cell lines that are sensitive to the lyric effects of HIV infection.
Specifically, this assay utilizes the metabolic reduction of a tetrazolium reagent, 2,3-bis[2-methoxy-4-nitro-5-sulfophenyl]-5-[(phenylamino)carbonyl]-2H-tetrazolium hydroxide (XTT). In the presence of a viable cell, the tetrazolium reagent, XTT, is reduced to provide XTT formazan which may be quantified using colorimetric determination (at 450 nm). The intensity of the chromogenic signal is directly proportional to the concentration of the XTT formazan, thus providing a measure of the quantity of viable cells.

[3] = Human immunodeficiency virus 1, concentration inhibiting 90% of the viral-induced toxicity
[4] = concentration inhibiting 90% of the viral-induced toxicity

Row | Compound | IC50 [1] | IC90 [2, 3] | IC90 [2, 4]
1 | CC(C)(C)NC(=O)[C@@H]1C[C@@H]2SCC[C@@H]2CN1C[C@@H](O)[C@H](CSc1ccccc1)NC(=O)[C@@H](CS(=O)(=O)c1ccc(F)cc1)NC(=O)C(F)(F)F [Example 29, N-t-Butyl-octahydro-5[2R-hydroxy-3R-phenylthiomethyl-4-aza-5-oxo-6S-N(trifluoromethylcarbonyl)amino-7-p-fluorophenylsulfonyl-heptyl]-(3aR,7aS)-thieno[3,2-c]pyridine-(6S)-carboxamide] | 11.1 nM | 754 nM | 
2 | CC(C)(C)NC(=O)[C@@H]1C[C@@H]2SCC[C@@H]2CN1C[C@@H](O)[C@H](CSc1ccccc1)NC(=O)[C@@H](CS(=O)(=O)c1ccc2ccccc2c1)NC(=O)C(F)(F)F [Example 30B, N-t-Butyl-octahydro-5[2R-hydroxy-3R-phenylthiomethyl-4-aza-5-oxo-6S-N(trifluoromethylcarbonyl)amino-7-naphth-2-ylsulfonyl-heptyl]-(3aR,7aS)-thieno[3,2-c]pyridine-(6S)-carboxamide] | 1.96 nM | 203 nM | 
3 | C[C@H]1[C@@H](OC(=O)N[C@@H](CSc2ccccc2)[C@H](O)CN2C[C@H]3CCS[C@H]3C[C@H]2C(=O)NC(C)(C)C)CCS1(=O)=O [Example 37D, N-t-Butyl-octahydro-5[2R-hydroxy-3R-N(1',1'-dioxo-2'S-methyl-tetrahydrothiophen-3'S-yloxycarbonyl)amino-4-phenylthio)-butyl]-(3aR,7aS)-thieno[3,2-c] pyridine-(6S)-carboxamide methanesulfonate] | 0.358 nM |  | 1.8 nM
4 | C[C@@H]1[C@H](OC(=O)N[C@@H](CSc2ccccc2)[C@H](O)CN2C[C@H]3CCS[C@H]3C[C@H]2C(=O)NC(C)(C)C)CCS1(=O)=O [Example 38D, N-t-Butyl-octahydro-5[2R-hydroxy-3R-N(1',1'-dioxo-2'R-methyl-tetrahydrothiophen-3'R-yloxycarbonyl)amino-4-phenylthio)-butyl]-(3aR,7aS)-thieno[3,2c] pyridine-(6S)-carboxamide methanesulfonate] | 7.28 nM |  | 7.1 nM
